According to patent US10071951B2, “Liquid cation exchanger” (Evonik Degussa GmbH, priority 2011, dated 2018):

Legend:
E. coli BL21(DE3) = assay: Toxicity of liquid cation exchangers, CFU determination (Example 2)
From the text: 50% DEHPA and lauric acid (15%), each dissolved in LSME and laden equimolar or 25 mol % with ALSME, were contacted as liquid cation exchanger with a E. coli BL21 (DE3) strain, and the influence of these two compounds on the ability of the strain to form colonies, expressed in CFUs, was investigated.

[1] = system: E. coli strain BL21 (DE3) Tlr pBT10 pACYC:Duet[TAcv]; assay: Toxicity of liquid cation exchangers in fermentation, oxygen transfer rate (OTR) (Example 5); format: cell-based; settings: ion exchanger 10% w/w in methyl laurate; for toxic effect on cells judged from the OTR curve: 150 mL added to fermentation broth, 22 h
Experimental: The biotransformation of methyl laurate to methyl aminolaurate was tested in an 8-fold parallel fermentation system from DasGip with different ion exchangers.
1 L reactors were used for the fermentation. The pH probes were calibrated using a two-point calibration with measurement solutions of pH 4.0 and pH 7.0. The reactors were filled with 300 mL of water and autoclaved for 20 min at 121° C. in order to ensure sterility. The pO2 probes were then polarized overnight (at least 6 h). On the next morning, the water was removed under the clean bench and replaced by high cell density medium with 50 mg/L kanamycin and 34 mg/L chloramphenicol. Subsequently, the pO2 probes were calibrated with a one-point calibration (stirrer: 600 rpm/gassing: 10 sL/h air) and the feed, correctant and induction means stretches were cleaned by means of clean-in-place. For this, the tubes were flushed with 70% ethanol, then with 1 M NaOH, then with sterile demineralised water, and finally filled with the respective media.
The ALS and ALSME producing E. coli strain BL21 (DE3) Tlr pBT10 pACYC:Duet[TAcv] was firstly grown from cryoculture in LB medium (25 mL in a 100 mL baffled flask) with 50 mg/L kanamycin and 34 mg/L chloramphenicol overnight at 37° C. and 200 rpm for ca. 18 h.
The 3 cultures were combined in a shake flask and the optical density was determined at 7.2. In order to inoculate the reactors with an optical density of 0.1, in each case 4.2 mL were drawn up in a 5 mL syringe and the reactors were inoculated by means of canulae via a septum.
The experiment carried out can be divided into two phases, the cultivation during which the cells should reach a certain optical density, and the subsequent biotransformation during which the expression of the genes required for the biotechnological process for producing ALSME was induced. The pH values were regulated to pH 6.8 on the one hand with ammonia (12.5%). During cultivation and biotransformation, the dissolved oxygen (DO) in the culture was regulated at 30% via stirrer speed and gassing rate. The fermentation was carried out as a feed batch, where the feed start, 5 g/Lh glucose feed (500 g/L glucose with 1% MgSO4*7H2O and 2.2% NH4Cl), was triggered via a DO peak. […] The expression of the transaminase was induced 2 h after feed start via the automatic addition of IPTG (1 mM). The induction of the alk-genes was carried out by the manual addition of DCPK (0.025% v/v) 10 h after feed start. Before the start of the biotransformation, the optical density of the culture broths was determined.
The start of the biotransformation phase was carried out 14 h after feed start. For this, 150 mL of a mixture of methyl laurate and the respective ion exchanger (10% w/w) were added as a batch to the fermentation broth. The ion exchangers used were di(2-ethylhexyl)phosphoric acid (DEHPA), lauric acid, oleic acid, palmitic acid, palmitoleic acid, stearic acid and a mixture of free fatty acids from the saponification of globe thistle oil. In order to provide an amino group donor for the transaminase, at the same time as the addition of the organic phase, 10.7 mL of an alanine solution (125 g/L) were added to the fermentation broth. For the sampling, 2 mL of fermentation broth were removed from the reactor and part of it was diluted 1/20 in an acetone/HCl mixture (c(HCl)=0.1 mol/L) and extracted. Samples were taken from all 8 reactors at 1.25 h, 3 h, 5 h, 20 h, 22 h […] after the start of the biotransformation. The transfer rates for oxygen (OTR=oxygen transfer rate) and carbon (CTR=carbon transfer rate) were determined during the fermentation via offgas analysis on the DasGip systems. The fermentation was ended 22 h after the start of the biotransformation.

[2] = Removal (reactive extraction) of DAI and DAS from an aqueous phase into a hydrophobic organic phase (Example 3); format: physicochemical
From the text: The organic solvents used here are kerosene (K), benzyl benzoate (B), methyl laurate (ML), cis-9-ocitadecen-1-ol (OD). As liquid cation exchangers, oleic acid and D2EHPA were compared in terms of their effect with the respective pure solvent.
The experimental procedure proceeded identically in all cases: the aqueous phase comprised 2% by weight of diamine and the organic phase consisted of the corresponding solvent and 20% by weight of the respective liquid cation exchanger. The volume ratio of the two phases was 1:1 (in each case 4.5 ml). At a constant temperature of T=30° C., the samples were shaken for 2 hours in a water bath. Then, after centrifugation and phase separation, the phases were analyzed. The pH was adjusted in all cases with aqueous ammonia or sulphuric acid.

E. coli W3110 [3] = settings: culture covered with identical volume of solvent, oleic acid volume adapted with LSME
Experimental: Firstly, a preculture comprising 20 ml LB medium was inoculated in a 100 ml baffled flask with a cryoculture of the corresponding strain. The culture was cultured overnight at 37° C. and with shaking at 200 rpm used on the next day in order to inoculate an identical main culture to an OD of 0.2. The main cultures (each 30 mL of LB medium) were then further incubated under identical conditions. At an OD of 0.4 to 0.5, the main culture was covered with in each case identical volumes (30 ml) of solvent and then further incubated.
To determine the number of CFU (colony-forming units) 0.1 ml samples were taken in the following experiments and diluted in sterile 0.9% NaCl solution. Suitable dilution stages were plated out on LB agar plates. After incubation at 34° C. overnight, the colonies formed were counted and the CFUs determined.
For this, two different concentrations of oleic acid were used and the volume was adapted by adding the corresponding amount of LSME (methyl laurate).
On account of the lower solubility of the unsaturated fatty acid lauric acid, this was used in a smaller amount. The volumes of the different cation exchangers were made the same with the LSME. The number of CFUs was determined at the start, after 4.5 h and after 24 h.

E. coli BW3110 = assay: Toxicity of the solvent LSME, CFU determination (Example 1); format: cell-based; settings: cells OD600 60 in 10 mL Kp buffer mixed with 5 mL LSME 98% (w/w), 30° C.
Experimental: The OD600 was 60. […] One dilution stage per preparation was plated out.

E. coli W3110 [4] = assay: Reduction in the toxicity of ALSME by contacting with a liquid cation exchanger, CFU determination (Example 4); settings: ALSME 0.2% (w/v) dissolved in aqueous systems, no organic phase
Experimental: Before the determination of the CFU was able to be carried out, a plate LB (10 g/L peptone from casein, 5 g/L yeast extract, 10 g/L NaCl) was streaked with E. coli BW3110 and incubated for 24 h. On the evening of the following day, a preculture was inoculated from this previously streaked plate. […] After the incubation of the main culture, the cells were harvested, centrifuged at 5258 g and 4° C. for 10 min and resuspended with an OD600 of 30 in 10 mL 50 mM Kp, buffer at pH 7.4 (or 25 mM HEPES buffer pH 7.4 if CFU determinations were carried out with ALSME). Both buffer solutions used contained 5% glucose (w/v). The bacteria suspension was then transferred to the shake flasks and treated with the respective substance solutions. After thorough mixing has taken place by swirling the flask, 100 μL of the suspension was pipetted out and placed into 900 μL, of previously charged sterile saline. This corresponded to sampling at time point t0. Then followed incubation of the preparations at 250 rpm and 30° C. The CFUs were determined over a period of 22 h. The samples were taken firstly at time points t0, t3, t6 and t22. For some preparations, a further sampling time point t15 was added and, in addition to this, a further additional dilution series was plated out in order to minimize deviations.
The bacteria were firstly resuspended in 5 mL (corresponds to half of the buffer volume). […]

[5] = oleic acid 20% by weight, solvent methyl laurate, pH lowered with sulphuric acid
[6] = E. coli BL21(DE3), culture covered with identical volume of solvent, oleic acid volume adapted with LSME

CCCCC(CC)COP(=O)(O)OCC(CC)CCCC (centres unmarked) [DEHPA, di(2-ethylhexyl)phosphoric acid, reference compound]
Number of CFUs after 22 or 24 h relative to t = 0 h (E. coli BL21(DE3); E. coli): 0% | toxic effect on cells judged from the OTR curve [1]: high grade toxic effect | OTR after adding the compound to the culture ([1]; 150 mL, within a short time): 0

NC1COC2C(N)COC12 (centres unmarked) [DAI, diaminoisoiditol]
degree of extraction ([2]; D2EHPA 20% by weight as liquid cation exchanger, without addition of acid or alkali, pH range 5.4 to 6.2, 30° C., 2 h, phases 1:1): ca. 100% | maximum degree of extraction [2, 5]: 48% | maximum degree of extraction ([2]; oleic acid, solvent benzyl benzoate, pH 1.1): 15.3 | maximum degree of extraction ([2]; oleic acid, solvent cis-9-octadecen-1-ol, pH 7.9, neither alkali nor acid added): 85% | maximum degree of extraction ([2]; oleic acid, solvent kerosene, pH 8.4): 77.5%

CCCCCCCCCCCCCCCC(=O)O [palmitic acid]
toxic effect on cells judged from the OTR curve [1]: considerably lower toxic effect

CCCCC(CC)C(=O)O (centres unmarked) [2-Ethylhexanoic acid]
Number of CFUs after 22 or 24 h relative to t = 0 h (E. coli BL21(DE3); [6]): 0% | Number of CFUs after 22 or 24 h relative to t = 0 h (E. coli W3110 [3]): 0%

CCCCCCCC/C=C\CCCCCCCC(=O)O [oleic acid]
toxic effect on cells judged from the OTR curve [1]: even lower toxicity than the saturated fatty acids

CC(C)CCCCCC(=O)O [Isononanoic acid]
Number of CFUs after 22 or 24 h relative to t = 0 h (E. coli BL21(DE3); [6]): 0% | Number of CFUs after 22 or 24 h relative to t = 0 h (E. coli W3110 [3]): 0%

CCCCCCCCCCCCCCCCCC(=O)O [stearic acid]
toxic effect on cells judged from the OTR curve [1]: considerably lower toxic effect

CCCCCCCCCCCC(=O)OC [LSME, methyl laurate]
percentage decrease in living cell count (E. coli BW3110; after 22 h): 30.3% | number of CFU/mL (E. coli BW3110; over a period of 6 h): remained constant | tolerance by the strains used (E. coli BL21(DE3); preliminary experiments): well tolerated

CCCCCCCCCCCC(=O)O [Lauric acid]
Number of CFUs after 22 or 24 h relative to t = 0 h (E. coli BL21(DE3); E. coli): 1.2% | toxic effect on cells judged from the OTR curve [1]: notably less toxic than DEHPA

CCCCCC/C=C\CCCCCCCC(=O)O [palmitoleic acid]
toxic effect on cells judged from the OTR curve [1]: even lower toxicity than the saturated fatty acids

COC(=O)CCCCCCCCCCCN [ALSME, methyl 12-aminolaurate]
effect on the bacteria (E. coli W3110 [4]): bactericidal effect

NC1COC2C(N)COC12 (centres unmarked) [DAS, diaminoisosorbitol]
maximum degree of extraction [2, 5]: 4% | maximum degree of extraction ([2]; oleic acid, solvent benzyl benzoate, pH 7.3): 61.5% | maximum degree of extraction ([2]; oleic acid, solvent cis-9-octadecen-1-ol, pH 6 (starting pH reduced with H2SO4)): 5.5% | maximum degree of extraction ([2]; oleic acid, solvent kerosene, pH 8.5): 85%
